Values after ≈ are worked out from the molar mass of the structure shown.
Experiments:
[1] = test system: transplanted tumor of human gastric adenocarcinoma cell SGC7901; assay: SGC7901 transplanted tumor in nude mice; settings: for tumor volume and relative tumor volume compared with the model group: low, medium and high doses, P<0.05; for mouse weight compared with the model group: in vivo
Procedure: Then cell concentration was adjusted to 1×10^7/ml with matrigel, then each nude mouse was inoculated subcutaneously with 0.2 ml of cells at its right armpit and recorded as the first day of inoculation. When the tumor grows to be greater than or equal to 100 mm^3, the mice were randomly divided into 11 groups with 6 mice in each group: a model group, a cyclophosphamide group, isovaleryl spiramycin I groups with doses of 25, 50 and 100 mg/kg, isovaleryl spiramycin II groups with doses of 25, 50 and 100 mg/kg, and isovaleryl spiramycin III groups with doses of 25, 50 and 100 mg/kg. Each group was continuously administered intragastrically for 30 days with a dose of 20 ml/kg. The mice were sacrificed the next day after drug withdrawal and the indicators were tested. The long diameter and short diameter of the tumor, and the body weight of each mouse were recorded every 3 days from drug administration to nude mouse sacrifice.
The body weight of the nude mice and the long diameter (a) and short diameter (b) of the transplanted tumor were measured every 3 days, and the tumor volume (v), relative tumor volume (RTV) and relative tumor proliferation rate (T/C) are calculated respectively according to the following formulas, wherein V=a×b^2/2; RTV=V/V0 (V0 is the tumor volume before administration, V is the tumor volume before sacrifice), and T/C (%)=treatment group RTV/model control group RTV×100%.
Each mouse was weighed and sacrificed. After the tumor was completely stripped off from the body of the mouse, the non-tumor tissues such as blood stains and fat were removed to weigh the tumor and calculate the tumor growth inhibition rate. The average tumor weight of each group of mice is used as an indicator of efficacy. Tumor growth inhibition rate (%)=(1−the average tumor weight of the treatment group/the average tumor weight of the model group)×100%.

[2] = test system: human glioma cell U251; settings: U251, MTT, 48 hours
Procedure: (§1) The purpose of the assay is to evaluate the in vitro cell proliferation inhibition or cytotoxic activity of a tested sample.
(§2) MCF-7, MDA-MB-231, HepG2, A549, H460, H1299, 786-0, 769-P, U251, A172, HeLa, PC3, PANC-1, TE-1, SGC7901, and HT-29 were adherent tumor cells. The adherent tumor cells in the logarithmic growth phase were selected and digested with trypsin, then were prepared into a 4 to 5×10^4/ml cell suspension by a medium containing 10% fetal bovine serum. And the cell suspension was inoculated in a 96-well culture plate, and each well was 100 μL. The 96-well culture plate was cultured at 37° C. and 5% CO2 for 24 hours. The experimental group was replaced with a new culture medium containing different concentrations of the sample to be tested, namely, isovaleryl spiramycin I, isovaleryl spiramycin II, or isovaleryl spiramycin III, while the control group was replaced with a culture medium containing the same volume of solvent. Each group was set up with 3 parallel wells that were cultured at 37° C. and 5% CO2 for 48 hours. After the supernatant was removed, the wells were washed carefully for 3 times with PBS. And 100 μL of freshly prepared culture medium containing 0.5 mg/ml MTT was added to each well for continuous incubation for 4 hours at 37° C. After the supernatant was removed carefully, 150 μL of DMSO was added to each well, and after the material was mixed for 10 minutes with a micro-oscillator, the optical density value was measured at 492 nm with a microplate reader.
(§3) The inhibition rate of the medicament on tumor cell growth is calculated according to the following formula:
(§4) Tumor cell growth inhibition rate (%)=[A492 (negative control)−A492 (dosing group)]/A492 (negative control)×100%
(§5) And the half-inhibitory concentration (IC50) of the sample is determined therefrom.

[3] = test system: human esophageal cancer cell TE-1; settings: TE-1, MTT, 48 hours
Procedure: as §1, §2, §3, §4, §5

[4] = test system: human glioblastoma cell A172; settings: A172, MTT, 48 hours
Procedure: as §1, §2, §3, §4, §5

[5] = test system: human large cell lung cancer cells H460; settings: H460, MTT, 48 hours
Procedure: as §1, §2, §3, §4, §5

[6] = test system: human large cell lung cancer cells H1299; settings: H1299, MTT, 48 hours
Procedure: as §1, §2, §3, §4, §5

[7] = test system: human renal clear cell adenocarcinoma cell 786-O; settings: MTT, 48 hours
Procedure: as §1, §2, §3, §4, §5

[8] = test system: human cervical cancer cell HeLa; settings: MTT, 48 hours
Procedure: as §1, §2, §3, §4, §5

[9] = test system: human breast cancer cells MDA-MB-231; settings: MDA-MB-231, MTT, 48 hours
Procedure: as §1, §2, §3, §4, §5

[10] = test system: human colon cancer cell HT-29; settings: HT-29, MTT, 48 hours
Procedure: as §1, §2, §3, §4, §5

[11] = test system: human breast cancer cells MCF-7; settings: MCF-7, MTT, 48 hours
Procedure: as §1, §2, §3, §4, §5

[12] = test system: human hepatoma cells HepG2; settings: HepG2, MTT, 48 hours
Procedure: as §1, §2, §3, §4, §5

[13] = test system: human gastric adenocarcinoma cell SGC7901; settings: SGC-7901, MTT, 48 hours
Procedure: as §1, §2, §3, §4, §5

[14] = test system: human non-small cell lung cancer cells A549; settings: A549, MTT, 48 hours
Procedure: as §1, §2, §3, §4, §5

[15] = test system: human renal cell adenocarcinoma cell 769-P; settings: MTT, 48 hours
Procedure: as §1, §2, §3, §4, §5

[16] = test system: human prostate cancer cell PC3; settings: PC3, MTT, 48 hours
Procedure: as §1, §2, §3, §4, §5

[17] = test system: human pancreatic cancer cell PANC-1; settings: PANC-1, MTT, 48 hours
Procedure: as §1, §2, §3, §4, §5

[18] = SGC7901, 12.5 mg/kg (low dose) i.g. 30 days
[19] = SGC7901, 25 mg/kg (medium dose) i.g. 30 days
[20] = SGC7901, 50 mg/kg (high dose) i.g. 30 days

## O=P1(N(CCCl)CCCl)NCCCO1 (centres unmarked) [Cyclophosphamide, cyclophosphamide, reference compound]
[1]; SGC7901, 30 mg/kg i.g. 30 days
  Body Weight (d 1): 22.63 ± 1.35 g
  Body Weight (d 30): 19.85 ± 0.72 g
  Inhibition Rate (tumor growth inhibition rate): 72.26%
  Relative Tumor Proliferation Rate (T/C): 30.71%
  Relative Tumor Volume (RTV): 4.27 ± 2.36
  Tumor Volume (d 1): 252.63 ± 74.57 mm3
  Tumor Volume (d 30): 865.27 ± 422.15 mm3
  Tumor Weight: 0.44 ± 0.41 g

## CO[C@@H]1[C@@H](O[C@@H]2O[C@H](C)[C@@H](O[C@H]3C[C@@](C)(O)[C@@H](OC(=O)CC(C)C)[C@H](C)O3)[C@H](N(C)C)[C@H]2O)[C@@H](CC=O)C[C@@H](C)[C@@H](O[C@H]2CC[C@H](N(C)C)[C@@H](C)O2)/C=C/C=C/C[C@@H](C)OC(=O)C[C@H]1O [Isovaleryl spiramycin I, isovaleryl spiramycin I]
[1]; [18]
  Inhibition Rate (tumor growth inhibition rate): 31.56%
  Relative Tumor Proliferation Rate (T/C): 61.13%
  Relative Tumor Volume (RTV): 5.37 ± 3.46
  Tumor Volume (d 1): 412.96 ± 157.62 mm3
  Tumor Volume (d 30): 2815.50 ± 770.23 mm3
  Tumor Weight: 1.07 ± 0.53 g
[1]; [19]
  Inhibition Rate (tumor growth inhibition rate): 53.13%
  Relative Tumor Proliferation Rate (T/C): 42.67%
  Relative Tumor Volume (RTV): 3.98 ± 2.78
  Tumor Volume (d 1): 258.63 ± 104.26 mm3
  Tumor Volume (d 30): 1230.76 ± 635.23 mm3
  Tumor Weight: 0.74 ± 0.52 g
[1]; [20]
  Inhibition Rate (tumor growth inhibition rate): 70.78%
  Relative Tumor Proliferation Rate (T/C): 20.23%
  Relative Tumor Volume (RTV): 3.64 ± 1.65
  Tumor Volume (d 1): 279.56 ± 156.70 mm3
  Tumor Volume (d 30): 630.69 ± 458.86 mm3
  Tumor Weight: 0.46 ± 0.36 g
[1]; SGC7901
  tumor volume and relative tumor volume compared with the model group: significantly lower
[1]
  mouse weight compared with the model group: no significant changes
[2]
  IC50: 11.01 ± 0.32 µg/mL (≈ 11.9 µM)
[3]
  IC50: 8.42 ± 1.53 µg/mL (≈ 9.08 µM)
[4]
  IC50: 10.24 ± 0.37 µg/mL (≈ 11 µM)
[5]
  IC50: 19.31 ± 0.35 µg/mL (≈ 20.8 µM)
[6]
  IC50: 24.03 ± 2.07 µg/mL (≈ 25.9 µM)
[7]
  IC50: 5.08 ± 0.08 µg/mL (≈ 5.48 µM)
[8]
  IC50: 10.31 ± 0.27 µg/mL (≈ 11.1 µM)
[9]
  IC50: 18.12 ± 0.61 µg/mL (≈ 19.5 µM)
[10]
  IC50: 17.30 ± 0.52 µg/mL (≈ 18.7 µM)
[11]
  IC50: 20.79 ± 1.57 µg/mL (≈ 22.4 µM)
[12]
  IC50: 17.90 ± 1.74 µg/mL (≈ 19.3 µM)
[13]
  IC50: 11.28 ± 1.27 µg/mL (≈ 12.2 µM)
[14]
  IC50: 19.93 ± 1.66 µg/mL (≈ 21.5 µM)
[15]
  IC50: 5.09 ± 0.04 µg/mL (≈ 5.49 µM)
[16]
  IC50: 9.39 ± 0.85 µg/mL (≈ 10.1 µM)
[17]
  IC50: 9.96 ± 0.46 µg/mL (≈ 10.7 µM)

## COC1C(OC(C)=O)CC(=O)OC(C)CC=CC=CC(OC2CCC(N(C)C)C(C)O2)C(C)CC(CC=O)C1OC1OC(C)C(OC2CC(C)(O)C(OC(=O)CC(C)C)C(C)O2)C(N(C)C)C1O (centres unmarked) [Isovaleryl spiramycin II, isovaleryl spiramycin II]
[1]; [18]
  Inhibition Rate (tumor growth inhibition rate): 24.44%
  Relative Tumor Proliferation Rate (T/C): 70.48%
  Relative Tumor Volume (RTV): 7.90 ± 6.97
  Tumor Volume (d 1): 134.33 ± 57.77 mm3
  Tumor Volume (d 30): 1029.72 ± 818.01 mm3
  Tumor Weight: 1.19 ± 0.62 g
[1]; [19]
  Inhibition Rate (tumor growth inhibition rate): 41.76%
  Relative Tumor Proliferation Rate (T/C): 51.42%
  Relative Tumor Volume (RTV): 6.88 ± 5.66
  Tumor Volume (d 1): 195.76 ± 76.95 mm3
  Tumor Volume (d 30): 1094.82 ± 687.01 mm3
  Tumor Weight: 0.91 ± 0.53 g
[1]; [20]
  Inhibition Rate (tumor growth inhibition rate): 70.24%
  Relative Tumor Proliferation Rate (T/C): 36.95%
  Relative Tumor Volume (RTV): 6.90 ± 7.37
  Tumor Volume (d 1): 143.85 ± 16.25 mm3
  Tumor Volume (d 30): 577.98 ± 411.47 mm3
  Tumor Weight: 0.47 ± 0.42 g
[1]; SGC7901
  tumor volume and relative tumor volume compared with the model group: significantly lower
[1]
  mouse weight compared with the model group: no significant changes
[2]
  IC50: 35.35 ± 1.57 µg/mL (≈ 36.5 µM)
[3]
  IC50: 35.59 ± 2.64 µg/mL (≈ 36.7 µM)
[4]
  IC50: 33.62 ± 0.57 µg/mL (≈ 34.7 µM)
[5]
  IC50: 41.16 ± 0.71 µg/mL (≈ 42.5 µM)
[6]
  IC50: 42.24 ± 0.44 µg/mL (≈ 43.6 µM)
[7]
  IC50: 20.18 ± 0.86 µg/mL (≈ 20.8 µM)
[8]
  IC50: 33.31 ± 0.40 µg/mL (≈ 34.4 µM)
[9]
  IC50: 49.60 ± 0.39 µg/mL (≈ 51.2 µM)
[10]
  IC50: 31.05 ± 3.23 µg/mL (≈ 32 µM)
[11]
  IC50: 51.14 ± 2.54 µg/mL (≈ 52.8 µM)
[12]
  IC50: 37.94 ± 1.71 µg/mL (≈ 39.1 µM)
[13]
  IC50: 39.14 ± 1.21 µg/mL (≈ 40.4 µM)
[14]
  IC50: 36.97 ± 2.92 µg/mL (≈ 38.1 µM)
[15]
  IC50: 20.61 ± 0.48 µg/mL (≈ 21.3 µM)
[16]
  IC50: 32.88 ± 0.53 µg/mL (≈ 33.9 µM)
[17]
  IC50: 31.93 ± 0.12 µg/mL (≈ 32.9 µM)

From US20200163984A1, “USE OF ISOVALERYL SPIRAMYCIN I, II AND/OR III IN MANUFACTURING MEDICAMENT FOR TREATING AND/OR PREVENTING TUMOR, AND MEDICAMENT” (SHENYANG FUYANG PHARMACEUTICAL TECHNOLOGY CO., LTD., priority 2017, published 2020)
